Laboratory results as given in publication PMC6410325, “Dual BACE1 and Cholinesterase Inhibitory Effects of Phlorotannins from Ecklonia cava—An In Vitro and in Silico Study” (Marine Drugs, 2019).

Legend:
BACE1 [1] = molecular target: T1, BACE1 (Homo sapiens, UniProt P56817); experiment: Fluorometric BACE1 inhibition assay; assay type: biochemical; settings: three independent experiments; log dose inhibition curve; read-out: IC50 (mean ± SD) BACE1
T1 construct: purchased Invitrogen (Pan Vera, Madison, WI, USA)
Protocol: Fluorometric assays with a recombinant human BACE1 or TACE were conducted according to manufacturer instructions. […] The inhibition ratio was obtained using the following equation:Inhibition (%) = [1 − (S − S0)/(C − C0)] × 100 where C was the fluorescence of control (enzyme, assay buffer, and substrate) after 60 min of incubation, C0 was the fluorescence of control at time 0, S was the fluorescence of tested samples (enzyme, sample solution, and substrate) after 60 min of incubation, and S0 was the fluorescence of the tested samples at time 0.

[2] = molecular target: T2, AChE from Electrophorus electricus (electric eel) (Electrophorus electricus, UniProt O42275); experiment: Colorimetric AChE inhibition assay (DTNB); assay type: biochemical; settings: three independent experiments; log dose inhibition curve; read-out: IC50 (mean ± SD) AChE
T2 construct: purchased Sigma-Aldrich (St. Louis, MO, USA)
Protocol: The colorimetric assays, including AChE, trypsin, chymotrypsin, and elastase were assayed according to previously described methods [36]. […] All reactions were performed in 96-well plates in triplicate and recorded using a microplate spectrophotometer.

[3] = molecular target: T3, human recombinant TACE (α-secretase) (Homo sapiens, UniProt P78536); experiment: Fluorometric TACE inhibition assay; assay type: biochemical; settings: mean ± SD, read-out: Inhibitory activity TACE (α-Secretase); for inhibition at 50 µM: 50 μM compound; for inhibition at 100 µM: 100 μM compound
T3 construct: purchased R&D Systems (Minneapolis, MN, USA)
Protocol: (§1) Fluorometric assays with a recombinant human BACE1 or TACE were conducted according to manufacturer instructions. Briefly, reaction mixtures containing human recombinant BACE1 (1.0 U/mL), the substrate (75 μM in 50 mM ammonium bicarbonate), and phlorotannins dissolved in an assay buffer (50 mM sodium acetate, pH 4.5) were incubated in darkness for 60 min at 25 °C in well plates. The increase in fluorescence intensity produced by substrate hydrolysis was observed on a fluorescence microplate reader with excitation and emission wavelengths of 545 and 590 nm, respectively. The inhibition ratio was obtained using the following equation:Inhibition (%) = [1 − (S − S0)/(C − C0)] × 100 where C was the fluorescence of control (enzyme, assay buffer, and substrate) after 60 min of incubation, C0 was the fluorescence of control at time 0, S was the fluorescence of tested samples (enzyme, sample solution, and substrate) after 60 min of incubation, and S0 was the fluorescence of the tested samples at time 0.
A human recombinant TACE (0.1 ppm in 25 mM Tris buffer), the substrate (APP peptide […] using EDANS/DABCYL), and phlorotannins were dissolved in an assay buffer, which were then combined and incubated for 60 min in the dark at 25 °C. The increase in fluorescence intensity produced by substrate hydrolysis was observed on a fluorescence microplate reader with excitation and emission wavelengths of 320 and 405 nm, respectively.

trypsin = experiment: Colorimetric trypsin inhibition assay; assay type: biochemical; settings: mean ± SD
Protocol: (§2) The colorimetric assays, including AChE, trypsin, chymotrypsin, and elastase were assayed according to previously described methods. The hydrolysis of AChE was monitored according to the formation of yellow 5-thio-2-nitrobenzoate anions at 405 nm for 15 min, which were produced by the reaction of DTNB with thiocholine released from ACh. All reactions were performed in 96-well plates in triplicate and recorded using a microplate spectrophotometer.
(§3) N-benzoyl-L-Arg-pNA, N-benzoyl-L-Tyr-pNA, and N-succinyl-Ala-Ala-Ala-pNA were used as substrates to assay the inhibition of trypsin, chymotrypsin, and elastase, respectively. Enzyme, Tris-HCl buffer (0.05 M, in 0.02 M CaCl2, pH 8.2), and phlorotannins were incubated for 10 min at 25 °C; then, substrate was added for 30 min at 37 °C. The absorbance was recorded at 410 nm. The inhibition ratio was obtained using the following equation:Inhibition (%) = {[1 − (A − B)]/control} × 100 where A was the absorbance of the control (enzyme, assay buffer, and substrate) after 60 min of incubation, and B was the absorbance of tested sample (assay buffer and sample solution) after 60 min of incubation.

chymotrypsin = molecular target: T4, chymotrypsin (Bos taurus, UniProt P00766); experiment: Colorimetric chymotrypsin inhibition assay; assay type: biochemical; settings: mean ± SD, read-out: Inhibitory activity Chymotrypsin; for inhibition at 50 µM: 50 μM compound; for inhibition at 100 µM: 100 μM compound
T4 construct: purchased Sigma-Aldrich (St. Louis, MO, USA)
Protocol: as §2, §3

elastase = molecular target: T5, elastase (Sus scrofa, UniProt P00772); experiment: Colorimetric elastase inhibition assay; assay type: biochemical; settings: mean ± SD, read-out: Inhibitory activity Elastase; for inhibition at 50 µM: 50 μM compound; for inhibition at 100 µM: 100 μM compound
T5 construct: purchased Sigma-Aldrich (St. Louis, MO, USA)
Protocol: as §2, §3

BACE1 [4] = molecular target: T1, BACE1; experiment: Enzyme kinetic study of BACE1 inhibition (Dixon and Lineweaver–Burk plots); assay type: biochemical; settings: for Ki: Dixon plot; for Inhibition Mode BACE1: Lineweaver–Burk plot
Protocol: as §1
(§4) To evaluate the kinetic mechanisms of phlorotannins towards BACE1 and AChE, Dixon and Lineweaver–Burk plots were conducted by various concentrations of substrate and inhibitors. Kinetic parameters such as Ki, Vmax, and Km values were calculated by Sigma Plot 12.3 (Systat Software, Inc., San Jose, CA, USA)

AChE = molecular target: T6, AChE (Electrophorus electricus, UniProt O42275); experiment: Enzyme kinetic study of AChE inhibition (Dixon and Lineweaver–Burk plots); assay type: biochemical, Electrophorus electricus (electric eel); settings: for Ki: Dixon plot; for Inhibition Mode AChE: Lineweaver–Burk plot
T6 construct: purchased Sigma-Aldrich (St. Louis, MO, USA)
Protocol: as §2, §4

hyaluronidase = settings: previous study; read-out: IC50 against hyaluronidase; cited from earlier work
[5] = test system: HIV-reverse transcriptase; settings: compared with 8,4′′′-dieckol (diphenyl ether linkage); cited from earlier work
[6] = cited from earlier work
BACE1 [7] = settings: phlorotannins from Eisenia bicyclis; cited from earlier work
[8] = test system: ethanol-induced memory impairment mice; settings: oral administration, 10 mg/kg; cited from earlier work
[9] = test system: murine hippocampus neuronal cells; settings: cited from earlier work
[10] = cited from earlier work; remark: listed apart in the source

T5 sequence (P00772 27-266): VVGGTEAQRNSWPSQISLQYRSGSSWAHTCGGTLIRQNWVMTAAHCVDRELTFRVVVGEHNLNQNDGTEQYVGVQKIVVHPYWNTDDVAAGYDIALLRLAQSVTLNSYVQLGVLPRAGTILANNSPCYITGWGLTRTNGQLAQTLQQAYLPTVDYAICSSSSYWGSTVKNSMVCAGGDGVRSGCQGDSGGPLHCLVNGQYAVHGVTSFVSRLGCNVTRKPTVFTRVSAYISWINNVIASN
T2 sequence (O42275 24-633): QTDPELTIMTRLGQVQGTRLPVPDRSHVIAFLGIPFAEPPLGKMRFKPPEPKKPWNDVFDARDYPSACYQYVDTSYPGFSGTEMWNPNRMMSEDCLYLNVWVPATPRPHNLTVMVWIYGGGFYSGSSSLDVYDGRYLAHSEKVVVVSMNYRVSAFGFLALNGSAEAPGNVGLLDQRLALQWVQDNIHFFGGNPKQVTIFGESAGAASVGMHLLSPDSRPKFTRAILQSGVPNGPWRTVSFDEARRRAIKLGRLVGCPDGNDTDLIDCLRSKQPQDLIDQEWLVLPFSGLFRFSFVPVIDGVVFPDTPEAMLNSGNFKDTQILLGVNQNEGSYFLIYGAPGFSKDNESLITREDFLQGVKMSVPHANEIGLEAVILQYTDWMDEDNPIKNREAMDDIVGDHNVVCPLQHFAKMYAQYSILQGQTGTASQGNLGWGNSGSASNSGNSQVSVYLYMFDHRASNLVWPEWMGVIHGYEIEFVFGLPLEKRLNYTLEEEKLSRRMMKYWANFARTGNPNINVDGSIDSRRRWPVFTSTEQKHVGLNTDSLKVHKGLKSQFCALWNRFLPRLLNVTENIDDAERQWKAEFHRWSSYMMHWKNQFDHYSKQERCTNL
T6 sequence (O42275 24-633): as above
T3 sequence (P78536 215-824): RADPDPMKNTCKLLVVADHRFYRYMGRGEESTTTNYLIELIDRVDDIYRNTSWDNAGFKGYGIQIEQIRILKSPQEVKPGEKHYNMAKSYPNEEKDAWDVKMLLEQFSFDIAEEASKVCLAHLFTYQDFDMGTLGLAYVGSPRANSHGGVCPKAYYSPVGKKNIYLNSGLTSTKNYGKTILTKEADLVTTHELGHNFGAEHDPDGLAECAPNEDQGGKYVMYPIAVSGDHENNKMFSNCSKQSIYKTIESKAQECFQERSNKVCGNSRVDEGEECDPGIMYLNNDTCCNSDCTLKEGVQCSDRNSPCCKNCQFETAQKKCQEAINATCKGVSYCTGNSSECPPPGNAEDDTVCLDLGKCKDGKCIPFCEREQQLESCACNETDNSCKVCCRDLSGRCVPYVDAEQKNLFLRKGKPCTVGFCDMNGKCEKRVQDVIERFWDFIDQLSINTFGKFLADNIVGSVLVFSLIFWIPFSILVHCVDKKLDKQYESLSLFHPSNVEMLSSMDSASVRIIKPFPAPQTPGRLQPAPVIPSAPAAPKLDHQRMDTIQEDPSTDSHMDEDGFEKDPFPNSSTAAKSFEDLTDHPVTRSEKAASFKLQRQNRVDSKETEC
T1 sequence (P56817 46-501): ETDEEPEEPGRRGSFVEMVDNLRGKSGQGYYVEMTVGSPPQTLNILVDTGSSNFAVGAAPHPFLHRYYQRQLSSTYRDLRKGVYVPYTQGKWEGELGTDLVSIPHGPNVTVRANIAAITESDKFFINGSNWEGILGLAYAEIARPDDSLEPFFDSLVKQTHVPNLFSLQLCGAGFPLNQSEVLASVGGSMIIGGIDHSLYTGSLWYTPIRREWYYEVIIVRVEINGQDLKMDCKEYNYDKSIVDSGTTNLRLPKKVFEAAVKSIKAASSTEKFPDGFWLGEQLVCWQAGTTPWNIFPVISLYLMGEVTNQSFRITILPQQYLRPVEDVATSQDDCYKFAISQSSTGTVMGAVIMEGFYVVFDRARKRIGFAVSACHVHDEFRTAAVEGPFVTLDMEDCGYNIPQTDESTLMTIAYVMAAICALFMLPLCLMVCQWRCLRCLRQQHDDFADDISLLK

Row | Structure (SMILES) | IC50 (BACE1 [1]) [µM] | IC50 [2] [µM] | inhibition at 50 µM [3] [%] | inhibition at 100 µM [3] [%] | Inhibitory activity Trypsin (trypsin; 50 μM compound) [%] | Inhibitory activity Trypsin (trypsin; 100 μM compound) [%] | inhibition at 50 µM (chymotrypsin) [%] | inhibition at 100 µM (chymotrypsin) [%] | inhibition at 50 µM (elastase) [%] | inhibition at 100 µM (elastase) [%] | Ki (BACE1 [4]) [µM] | Inhibition Mode BACE1 (BACE1 [4]) | Ki (AChE) [µM] | Inhibition Mode AChE (AChE) | IC50 (hyaluronidase) [µM] | Lipinski's requirements for acceptable oral bioavailability [6] | H2O2-induced oxidative stress [9] | other results
1 | Oc1cc(O)cc(Oc2c(O)cc(O)c3c2Oc2c(cc(O)c(-c4c(O)cc5c(c4O)Oc4c(Oc6cc(O)cc(O)c6)c(O)cc(O)c4O5)c2O)O3)c1 [8,8′-Bieckol, 9-(3,5-dihydroxyphenoxy)-2-[9-(3,5-dihydroxyphenoxy)-1,3,6,8-tetrahydroxydibenzo-p-dioxin-2-yl]dibenzo-p-dioxin-1,3,6,8-tetrol] | 1.62 ± 0.14 | 4.59 ± 0.32 | 11.1 ± 0.53 | 3.57 ± 0.05 | 2.98 ± 0.26 | −23.05 ± 0.32 | 0.86 ± 0.02 | 0.33 ± 0.01 | 5.26 ± 0.43 | 7.52 ± 0.24 | 13.9 | Non-competitive | 11.4 | Competitive | 40 | have limitations on bioavailability |  | Inhibitory effect on HIV-reverse transcriptase relative to 8,4′′′-dieckol [5]: tenfold higher
2 | Oc1cc(O)cc(Oc2c(O)cc(O)c3c2Oc2c(O)cc(Oc4c(O)cc(Oc5c(O)cc(O)c6c5Oc5c(O)cc(O)cc5O6)cc4O)cc2O3)c1 [Dieckol, 4-[4-[6-(3,5-dihydroxyphenoxy)-4,7,9-trihydroxydibenzo-p-dioxin-2-yl]oxy-3,5-dihydroxyphenoxy]dibenzo-p-dioxin-1,3,6,8-tetrol] | 2.34 ± 0.1 | 5.69 ± 0.42 | 16.9 ± 1.01 | 18.3 ± 0.41 | 6.44 ± 0.76 | −16.64 ± 1.40 | 4.39 ± 0.44 | 1.43 ± 0.02 | 6.7 ± 0.85 | 6.2 ± 0.14 | 20.1 | Non-competitive | 12.3 | Competitive | 120 | have limitations on bioavailability | suppressed H2O2-induced oxidative stress | BACE1 inhibitory effect, relative (BACE1 [7]): stronger than eckol; Cognitive ability [8]: improved cognitive ability; Penetration into the brain across the blood–brain barrier [10]: successfully penetrated into the brain via crossing the blood–brain barrier
3 | Oc1cc(O)cc(Oc2c(O)cc(O)c3c2Oc2c(O)cc(O)cc2O3)c1 [Eckol, 4-(3,5-dihydroxyphenoxy)dibenzo-p-dioxin-1,3,6,8-tetrol] | 7.67 ± 0.71 | 10 ± 0.94 | 19.3 ± 1.52 | 10.6 ± 0.53 | 3.59 ± 0.57 | 4.73 ± 0.25 | 1.48 ± 0.19 | 2.65 ± 0.06 | 6.06 ± 0.13 | 4.37 ± 0.27 | 31.2 | Non-competitive | 37.3 | Competitive | > 800 | meets Lipinski′s requirements for acceptable oral bioavailability | suppressed H2O2-induced oxidative stress | 
